The source of these data is patent US20050171358A1 (priority 2002, published 2005).

One experiment deals with Phytophthora infestans. It is filed as in vivo. The settings on record: 125 ppm, 200 L/10 a spray on tomato (5 leaf stage), inoculated next day; diseased area rates of third to fifth true leaves after 3 days in green house, graded by Table 5.
Experiment [1] has as its system Pseudoperonospora cubensis. Briefly: Effect test for cucumber downy mildew (Evaluation Example 4). It is filed as in vivo. The settings on record: 125 ppm, 200 L/10 a spray on cucumber (3 leaf stage), inoculated next day; diseased area rates of first and second true leaves after 3 days in green house, graded by Table 5. As for the experimental part:
The active ingredient compound was diluted with water containing 0.01% Tween 20 to have a concentration of 125 ppm. […] Next day, a zoosporangium suspension of Pseudoperonospora cubensis which was the causative fungus of cucumber downy mildew was sprayed to inoculate.

For the next experiment, the system named is Pyricularia oryzae. Format: in vivo. Conditions: 200 ppm spray on rice (Koshihikari, 3 leaf stage), inoculated next day; lesion numbers on third leaves after 7 days in green house, graded by Table 5.
In experiment [2] the test system is Colletotrichum lagenarium. The settings on record: 200 ppm spray on cucumber (3 leaf stage), inoculated next day; lesion numbers on first and second leaves after 7 days in green house, graded by Table 5.

In the case of `O=C(NCc1cc(CCl)no1)c1ccc(Cl)cc1` [III-254, N-[(3-chloromethyl-5-isoxazolyl)methyl]-4-chlorobenzamide], the “Evaluation (effect for tomato late blight)” value in the experiment with Phytophthora infestans is listed as 5 (0). In addition, in experiment [1], the “Evaluation (effect for cucumber downy mildew)” value was 3 (6˜10).

On to `O=C(NCc1cc(CCl)no1)c1cccc2ccccc12` [III-268, N-[(3-chloromethyl-5-isoxazolyl)methyl]-1-naphthalenecarboxamide], for which the “Evaluation (effect for tomato late blight)” value in the experiment on Phytophthora infestans is reported as 0 (41 or more).

`Cc1ccccc1C(=O)NCc1cc(CCl)no1` [III-273, N-[(3-chloromethyl-5-isoxazolyl)methyl]-2-methylbenzamide]: in the experiment on Phytophthora infestans, the “Evaluation (effect for tomato late blight)” value is given as 0 (41 or more).

Consider `Cc1ccc(-c2cc(CNC(=O)C3CCCCC3)on2)cc1` [III-222, N-{[3-(4-tolyl)-5-isoxazolyl]methyl}cyclohexanecarboxamide], for which the “Evaluation (effect for rice blast)” value with Pyricularia oryzae is 3 (6˜10). In addition, the “Evaluation (effect for cucumber downy mildew)” value in experiment [1] is given as 4 (1˜5). Moreover, the “Evaluation (effect for cucumber anthracnose)” value in experiment [2] was 2 (11˜20).

Regarding `Cc1ccc(-c2cc(CNC(=O)N3CCOCC3)on2)cc1` [III-204, N-{[3-(4-tolyl)-5-isoxazolyl]methyl}-4-morpholinecarboxamide], the “Evaluation (effect for rice blast)” value with Pyricularia oryzae is 2 (11˜20). The “Evaluation (effect for cucumber downy mildew)” value in experiment [1] is reported as 4 (1˜5). In addition, the “Evaluation (effect for cucumber anthracnose)” value in experiment [2] is recorded as 2 (11˜20).

In the case of `O=C(NCc1cc(CCl)no1)c1ccc(OCCl)cc1` [III-270, N-[(3-chloromethyl-5-isoxazolyl)methyl]-4-chloromethyloxybenzamide], the “Evaluation (effect for tomato late blight)” value in the experiment with Phytophthora infestans is listed as 2 (11˜20).

Take `O=C(COc1ccccc1)NCc1cc(CCl)no1` [I-65, N-[(3-chloromethyl-5-isoxazolyl)methyl]phenoxyacetamide]: in the experiment on Phytophthora infestans, the “Evaluation (effect for tomato late blight)” value is recorded as 4 (1˜5). In addition, the “Evaluation (effect for cucumber downy mildew)” value in experiment [1] was 2 (11˜20).

As for `CCc1ccc(C(=O)NCc2cc(CCl)no2)cc1` [III-269, N-[(3-chloromethyl-5-isoxazolyl)methyl]-4-ethylbenzamide], the “Evaluation (effect for tomato late blight)” value in the experiment with Phytophthora infestans is listed as 5 (0). Also, the “Evaluation (effect for cucumber downy mildew)” value in experiment [1] is on record as 5 (0).

For the molecule `O=C(NCc1cc(CCl)no1)c1ccc(C(F)(F)F)cc1` [III-261, N-[(3-chloromethyl-5-isoxazolyl)methyl]-4-trifluoromethylbenzamide], the “Evaluation (effect for tomato late blight)” value in the experiment with Phytophthora infestans is 2 (11˜20).

As to `O=C(NCc1cc(CCl)no1)c1cccc(Cl)c1` [III-277, N-[(3-chloromethyl-5-isoxazolyl)methyl]-3-chlorobenzamide], the “Evaluation (effect for tomato late blight)” value in the experiment with Phytophthora infestans is 4 (1˜5). Moreover, the “Evaluation (effect for cucumber downy mildew)” value in experiment [1] was 2 (11˜20).

In the case of `O=C(NCc1cc(CBr)no1)NC1CCCCC1` [II-111, 3-(3-bromomethyl-5-isoxazolyl)methyl-1-cyclohexylurea], in the experiment on Phytophthora infestans, the “Evaluation (effect for tomato late blight)” value was 5 (0). Further, the “Evaluation (effect for cucumber downy mildew)” value in experiment [1] is recorded as 3 (6˜10).

`O=C(NCc1cc(CCl)no1)c1ccc(Cl)cc1Cl` [III-271, N-[(3-chloromethyl-5-isoxazolyl)methyl]-2,4-dichlorobenzamide]: in the experiment on Phytophthora infestans, the “Evaluation (effect for tomato late blight)” value is 1 (21˜41).

With `O=C(NCc1cc(CCl)no1)NC1CCCC1` [II-107, 3-(3-chloromethyl-5-isoxazolyl)methyl-1-cyclopentylurea], in the experiment with Phytophthora infestans, the “Evaluation (effect for tomato late blight)” value is 4 (1˜5). For the same molecule, the “Evaluation (effect for cucumber downy mildew)” value in experiment [1] was 2 (11˜20).

With `O=C(NCc1cc(CCl)no1)c1ccc(Cl)c(Cl)c1` [III-272, N-[(3-chloromethyl-5-isoxazolyl)methyl]-3,4-dichlorobenzamide], in the experiment with Phytophthora infestans, the “Evaluation (effect for tomato late blight)” value is 5 (0). In experiment [1], the “Evaluation (effect for cucumber downy mildew)” value is 3 (6˜10).

`O=C(Cc1ccccc1)NCc1cc(CCl)no1` [I-67, N-[(3-chloromethyl-5-isoxazolyl)methyl]phenylacetamide]: the “Evaluation (effect for tomato late blight)” value in the experiment with Phytophthora infestans is recorded as 2 (11˜20).

Consider `COc1ccc(C(=O)NCc2cc(CN3Cc4ccccc4C3)no2)cc1`, for which, in the experiment with Phytophthora infestans, the “Evaluation (effect for tomato late blight)” value was 1 (21˜41).

Turning to `O=C(NCc1cc(CCl)no1)c1ccc2ccccc2c1` [III-267, N-[(3-chloromethyl-5-isoxazolyl)methyl]-2-naphthalenecarboxamide], in the experiment on Phytophthora infestans, the “Evaluation (effect for tomato late blight)” value is 5 (0). The “Evaluation (effect for cucumber downy mildew)” value in experiment [1] is 5 (0).

With `O=C(NCc1cc(CCl)no1)c1ccccc1` [III-226, N-[(3-chloromethyl-5-isoxazolyl)methyl]benzamide], the “Evaluation (effect for tomato late blight)” value in the experiment with Phytophthora infestans was 3 (6˜10). Moreover, the “Evaluation (effect for cucumber downy mildew)” value in experiment [1] is 4 (1˜5).

In the case of `O=C(C=Cc1ccccc1)NCc1cc(CCl)no1` [III-266, N-[(3-chloromethyl-5-isoxazolyl)methyl]-β-phenylacrylamide], in the experiment on Phytophthora infestans, the “Evaluation (effect for tomato late blight)” value was 1 (21˜41).

Turning to `O=C(NCc1cc(CCl)no1)c1ccc(Br)cc1` [III-260, N-[(3-chloromethyl-5-isoxazolyl)methyl]-4-bromobenzamide], the “Evaluation (effect for tomato late blight)” value in the experiment on Phytophthora infestans is recorded as 3 (6˜10).

For the molecule `Cc1ccc(-c2cc(CNC(=O)NC3CCCC3)on2)cc1` [II-10, 3-[3-(4-tolyl)-5-isoxazolyl]methyl-1-cyclopentylurea], in the experiment with Pyricularia oryzae, the “Evaluation (effect for rice blast)” value was 4 (1˜5). In experiment [2], the “Evaluation (effect for cucumber anthracnose)” value was 5 (0).

`COc1ccc(-c2cc(CNC(=O)c3ccc(C)cc3)on2)c(OC)c1` [III-66, N-{[3-(2,4-dimethoxyphenyl)-5-isoxazolyl]methyl}-4-methylbenzamide]: in the experiment with Pyricularia oryzae, the “Evaluation (effect for rice blast)” value was 5 (0). Moreover, the “Evaluation (effect for cucumber anthracnose)” value in experiment [2] is given as 5 (0).

As to `O=C(NCc1cc(-c2ccc(C(F)(F)F)cc2)no1)c1ccccc1` [III-40, N-{[3-(4-trifluoromethylphenyl)-5-isoxazolyl]methyl}benzamide], in the experiment with Pyricularia oryzae, the “Evaluation (effect for rice blast)” value is 5 (0). In addition, the “Evaluation (effect for cucumber anthracnose)” value in experiment [2] was 5 (0).

For `CC(C)Cc1cc(CNC(=O)c2ccc(C(F)(F)F)cc2)on1` [III-257, N-[(3-isobutyl-5-isoxazolyl)methyl]-4-trifluoromethylbenzamide], the “Evaluation (effect for rice blast)” value in the experiment on Pyricularia oryzae is given as 3 (6˜10). For the same molecule, the “Evaluation (effect for cucumber anthracnose)” value in experiment [2] was 4 (1˜5).

For the molecule `O=C(NCc1cc(CCl)no1)C1CCCCC1` [III-233, N-[(3-chloromethyl-5-isoxazolyl)methyl]cyclohexanecarboxamide], the “Evaluation (effect for tomato late blight)” value with Phytophthora infestans is recorded as 2 (11˜20).

With `O=C(NCc1cc(-c2ccccc2)no1)c1ccc(OC(F)(F)F)cc1` [III-139, N-[(3-phenyl-5-isoxazolyl)methyl]-4-trifluoromethoxybenzamide], the “Evaluation (effect for rice blast)” value with Pyricularia oryzae is listed as 5 (0). The “Evaluation (effect for cucumber anthracnose)” value in experiment [2] is listed as 5 (0).

For the molecule `COc1ccc(C(=O)NCc2cc(Cc3ccccc3)no2)cc1` [IV-2, N-[(3-benzyl-5-isoxazolyl)methyl]-4-methoxybenzamide], the “Evaluation (effect for rice blast)” value in the experiment with Pyricularia oryzae is given as 5 (0). The “Evaluation (effect for cucumber anthracnose)” value in experiment [2] is reported as 5 (0).

Take `Cc1ccc(C(=O)NCc2cc(Cc3ccccc3C)no2)cc1` [IV-12, N-{[3-(2-methylbenzyl)-5-isoxazolyl]methyl}-4-methyl benzamide]: the “Evaluation (effect for rice blast)” value with Pyricularia oryzae is recorded as 5 (0). The “Evaluation (effect for cucumber anthracnose)” value in experiment [2] was 5 (0).

In the case of `COc1ccc(C(=O)NCc2cc(C(=O)Nc3cccc(Cl)c3)no2)cc1` [IV-105, N-{[3-(3-chlorophenyl)aminocarbonyl-5-isoxazolyl]methyl}-4-methoxybenzamide], in the experiment with Pyricularia oryzae, the “Evaluation (effect for rice blast)” value was 3 (6˜10). The “Evaluation (effect for cucumber anthracnose)” value in experiment [2] was 3 (6˜10).

As for `CCCCc1cc(CNC(=O)c2ccc(OC)cc2)on1` [III-235, N-[(3-butyl-5-isoxazolyl)methyl]-4-methoxybenzamide], in the experiment on Pyricularia oryzae, the “Evaluation (effect for rice blast)” value was 4 (1˜5). The “Evaluation (effect for cucumber anthracnose)” value in experiment [2] is reported as 4 (1˜5).

In the case of `CC(C)Cc1cc(CNC(=O)c2ccc(Br)cc2)on1` [III-256, N-[(3-isobutyl-5-isoxazolyl)methyl]-4-bromobenzamide], the “Evaluation (effect for rice blast)” value in the experiment with Pyricularia oryzae was 5 (0). Further, in experiment [2], the “Evaluation (effect for cucumber anthracnose)” value is listed as 5 (0).

Turning to `Cc1ccc(C(=O)NCc2cc(/C=C/c3ccccc3)no2)cc1` [III-210, N-{[3-(2-phenylethenyl)-5-isoxazolyl)methyl]-4-methylbenzamide], the “Evaluation (effect for rice blast)” value in the experiment with Pyricularia oryzae is on record as 5 (0). Also, in experiment [2], the “Evaluation (effect for cucumber anthracnose)” value is on record as 5 (0).

With `COc1ccc(C(=O)NCc2cc(COc3ccccc3)no2)cc1` [IV-45, N-[(3-phenyloxymethyl-5-isoxazolyl)methyl]-4-methoxy benzamide], the “Evaluation (effect for rice blast)” value in the experiment with Pyricularia oryzae is 5 (0). Also, in experiment [2], the “Evaluation (effect for cucumber anthracnose)” value is reported as 5 (0).

`O=C(NCc1cc(-c2ccccc2)no1)c1ccc([N+](=O)[O-])cc1` [III-137, N-[(3-phenyl-5-isoxazolyl)methyl]-4-nitrobenzamide]: the “Evaluation (effect for rice blast)” value with Pyricularia oryzae was 4 (1˜5). Further, the “Evaluation (effect for cucumber anthracnose)” value in experiment [2] is given as 5 (0).

Consider `CC(C)c1cc(CNC(=O)NC2CCCCC2)on1` [II-15, 1-[(3-isopropyl-5-isoxazolyl)methyl]-3-cyclohexylurea], for which the “Evaluation (effect for rice blast)” value in the experiment on Pyricularia oryzae is 3 (6˜10). In addition, the “Evaluation (effect for cucumber anthracnose)” value in experiment [2] is 4 (1˜5).

As for `Cc1ccc(C(=O)NCc2cc(Cc3ccccc3)no2)cc1` [IV-3, N-[(3-benzyl-5-isoxazolyl)methyl]-4-methylbenzamide], in the experiment with Pyricularia oryzae, the “Evaluation (effect for rice blast)” value is reported as 5 (0). Also, the “Evaluation (effect for cucumber anthracnose)” value in experiment [2] is reported as 5 (0).
